Among the data in US20230286968A1, “ARYLOXAZOLO SPIRAL RING DERIVATIVES FOR THE TREATMENT AND PROPHYLAXIS OF HEPATITIS B VIRUS INFECTION” (Hoffmann-La Roche Inc., priority 2020, published 2023) are IC50 and CC50 values, retold here.

Data set [1] relates to HBsAg. Put plainly: PHH natural infection assay, HBsAg (alphalisa). Type of data set: cell-based, HBV. The method, boiled down:
(§1)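 Cryopreserved PHH plated 24 h, infected with HBV at 200 GE/cell plus 4% PEG8000 for 24 h, then sandwich-cultured 72 h with 0.25 mg/mL matrix gel. Compounds at varied concentrations applied twice at 72-h intervals. Supernatant HBsAg and HBeAg measured by AlphaLISA with specific antibodies.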

Data set [2] deals with HBeAg. Kind of data set: PHH natural infection assay, HBeAg (alphalisa). The format is cell-based, HBV. The method, boiled down: as §1
For orientation: Alpha assays give light when donor and acceptor beads are brought close together.

The nature of data set [3]: Cytotoxicity in PHH natural infection assay (Cell Counting Kit-8). The format is cell-based. The settings on record: HBV-infected primary human hepatocytes, CCK8. The method, boiled down: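 HBV-infected primary human hepatocytes (200 GE/cell, 4% PEG8000, 24 h), sandwich-cultured 72 h, then given compound-containing medium twice at 72 h intervals. Cytotoxicity read by CCK-8 at end of treatment.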
(Tetrazolium dyes change colour on reduction, which living cells bring about.)

Where [4] appears, read: Hepatitis B virus, Hepatocyte, read-out: HBsAg IC50, HBV-infected primary human hepatocytes, supernatant, alphalisa.
Where [5] appears, read: Hepatitis B virus, Hepatocyte, read-out: HBeAg IC50, HBV-infected primary human hepatocytes, supernatant, alphalisa.

pIC50: −log10 of the molar value. Read-outs that look alike come from different tables or passages of the source.

A word on the pIC50: it is the IC50 on a negative log10 scale, so that one unit is a factor of ten. As a reminder, the CC50 is the concentration giving 50% cytotoxicity. A lower CC50 goes with harm at low concentration. In the case of `O=C(NC1CC2(C1)CC(c1nc3cc(Cl)ccc3o1)C2)c1cccnc1` (stereo not drawn) [Example 2, N-[6-(5-chloro-1,3-benzoxazol-2-yl)spiro[3.3]heptan-2-yl]pyridine-3-carboxamide], the pIC50 in data set [1] (setting [4]) is 5.21; in data set [2] (setting [5]) it was 5.28. In data set [3], this compound displayed a cytotoxic concentration (CC50) at 144 h of 68.3 µM.
As for `[H][C@]1(NC(=O)c2ccnc(S(C)(=O)=O)c2)C[C@@]2(C1)C[C@]([H])(c1nc3cc(Cl)ccc3o1)C2` (single isomer, unassigned) [Example 87-b, (Sa)—N-[6-(5-chloro-1,3-benzoxazol-2-yl)spiro[3.3]heptan-2-yl]-2-methylsulfonyl-pyridine-4-carboxamide], the negative-log IC50 (pIC50) in data set [1] (read-out: HBsAg IC50, HBV-infected primary human hepatocytes, supernatant, alphalisa) is 5.43; in data set [2] (read-out: HBeAg IC50, HBV-infected primary human hepatocytes, supernatant, alphalisa), 5.48. In data set [3], the 50% cytotoxic concentration (CC50) at 144 h was above 10 µM.
`CCS(=O)(=O)c1cc(C(=O)NC2CC3(C2)CC(c2nc4cc(Cl)ccc4o2)C3)ccn1` (stereo not drawn) [Example 26, N-[6-(5-chloro-1,3-benzoxazol-2-yl)spiro[3.3]heptan-2-yl]-2-ethylsulfonyl-pyridine-4-carboxamide]: the pIC50 is 6.55 in data set [1] (setting [4]) and 6.72 in data set [2] (setting [5]). For the same compound, the CC50 at 144 h in data set [3] amounted to 74.1 µM.
Take `Cc1ccc(S(=O)(=O)N2CC(CC(=O)NC3CC4(C3)CC(c3nc5cc(Cl)ccc5o3)C4)C2)cc1` (stereo not drawn) [Example 78, N-[6-(5-chloro-1,3-benzoxazol-2-yl)spiro[3.3]heptan-2-yl]-2-[1-(p-tolylsulfonyl)azetidin-3-yl]acetamide]: the values for the pIC50 in data set [1] (setting [4]) and in data set [2] (setting [5]) were 5.32 and 5.36, respectively. In data set [3], this compound returned a CC50 at 144 h above 10 µM.
In the case of `O=C(NC1CC2(C1)CC(c1nc3cc(Cl)ccc3o1)C2)c1ccnc(NC2COC2)c1` (stereo not drawn) [Example 5, N-[6-(5-chloro-1,3-benzoxazol-2-yl)spiro[3.3]heptan-2-yl]-2-(oxetan-3-ylamino)pyridine-4-carboxamide], the pIC50 was 5.14 in data set [1] (setting [4]) and 5.27 in data set [2] (setting [5]). Besides, the CC50 at 144 h in data set [3] is above 10 µM.
For `Cc1ccc(S(=O)(=O)N2CCC(CC(=O)NC3CC4(C3)CC(c3nc5cc(Cl)ccc5o3)C4)CC2)cc1` (stereo not drawn) [Example 80, N-[6-(5-chloro-1,3-benzoxazol-2-yl)spiro[3.3]heptan-2-yl]-2-[1-(p-tolylsulfonyl)-4-piperidyl]acetamide], in that order: 5.44, 5.41 and above 10 µM.
`O=C(NC1CC2(C1)CC(c1nc3cc(Cl)ccc3o1)C2)c1ccnc(S(=O)(=O)CC2CC2)c1` (stereo not drawn) [Example 100, N-[6-(5-chloro-1,3-benzoxazol-2-yl)spiro[3.3]heptan-2-yl]-2-(cyclopropylmethylsulfonyl)pyridine-4-carboxamide]: the figures for the pIC50 in data set [1] (setting [4]) and in data set [2] (setting [5]) were 6.23 and 6.36, respectively. Moreover, in data set [3], the CC50 at 144 h was above 10 µM.
On the same counts, the results for `O=C(NC1CC2(C1)CC(c1nc3cc(Cl)ccc3o1)C2)C1CCCS1(=O)=O` (stereo not drawn) [Example 42, N-[6-(5-chloro-1,3-benzoxazol-2-yl)spiro[3.3]heptan-2-yl]-1,1-dioxo-thiolane-2-carboxamide] are 5.01, 5.25 and above 100 µM.
For `O=C(NC1CC2(C1)CC(c1nc3cc(Cl)ccc3o1)C2)c1ccnc(NC2CC2)c1` (stereo not drawn) [Example 10, N-[6-(5-chloro-1,3-benzoxazol-2-yl)spiro[3.3]heptan-2-yl]-2-(cyclopropylamino)pyridine-4-carboxamide], the negative logarithm of the IC50 (pIC50) in data set [1] (setting [4]) was 5.42; in data set [2] (setting [5]), 5.41. In data set [3], this compound returned a CC50 at 144 h above 10 µM.
For `O=C(NC1CC2(C1)CC(c1nc3ncccc3o1)C2)C1CCS(=O)(=O)C1` (stereo not drawn) [Example 41, N-(6-oxazolo[4,5-b]pyridin-2-ylspiro[3.3]heptan-2-yl)-1,1-dioxo-thiolane-3-carboxamide], in that order: 5.28, 5.63 and above 100 µM.
Turning to `CNS(=O)(=O)Nc1cc(C(=O)NC2CC3(C2)CC(c2nc4cc(Cl)ccc4o2)C3)ccn1` (stereo not drawn) [Example 22, N-[6-(5-chloro-1,3-benzoxazol-2-yl)spiro[3.3]heptan-2-yl]-2-(methylsulfamoylamino)pyridine-4-carboxamide], the pIC50 was 5.31 in data set [1] (setting [4]) and 5.36 in data set [2] (setting [5]). In data set [3], this compound came in with a cytotoxic concentration (CC50) at 144 h above 10 µM.
For `O=C(NC1CC2(C1)CC(c1nc3cc(Cl)ccc3o1)C2)C1CCN(S(=O)(=O)C2CC2)C1` (stereo not drawn) [Example 72, N-[6-(5-chloro-1,3-benzoxazol-2-yl)spiro[3.3]heptan-2-yl]-1-cyclopropylsulfonyl-pyrrolidine-3-carboxamide], in that order: 5.02, 5.35 and above 10 µM.
